According to patent publication US9817000B2, “Method for identifying compounds that modulate a T2R taste receptor” (The Regents of the University of California, priority 1999, dated 2017):

Target: T1, mT2R5 coupling to Gαs, Gαi, Gαq or Gαo (Mus musculus, UniProt Q9JKT4)
T1 construct: infectious Bacmid containing rhodopsin tagged mT2R5 (DBA/2-allele) was produced using the Bac-to-Bac system; rhodopsin tag (rho); made in house; host or cells: insect larval cells infected with recombinant Bacmid (Bac-to-Bac); membrane preparation
T1 sequence (Q9JKT4 1-300): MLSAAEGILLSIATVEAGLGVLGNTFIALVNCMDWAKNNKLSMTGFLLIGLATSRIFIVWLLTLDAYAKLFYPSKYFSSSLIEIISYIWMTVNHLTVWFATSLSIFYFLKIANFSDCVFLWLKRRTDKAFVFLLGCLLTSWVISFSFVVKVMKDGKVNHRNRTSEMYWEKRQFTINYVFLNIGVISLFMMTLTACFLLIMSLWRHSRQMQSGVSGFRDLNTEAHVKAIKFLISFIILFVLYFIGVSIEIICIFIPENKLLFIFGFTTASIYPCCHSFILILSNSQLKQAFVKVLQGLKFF
Assay: Tastant-induced GTPγS binding to other G-protein α-subunits with mT2R5 membranes
Type: biochemical
Description: To investigate the selectivity of T2R-G-protein coupling, mT2R5 was chosen for study because its activation by cycloheximide recapitulates mouse taste responses. Rho-tagged mT2R5 and gustducin were prepared using a baculovirus expression system. mT2R5-containing membranes were incubated with various purified G-proteins, including gustducin, and measured tastant-induced GTP-γS binding (Hoon et al., Biochem J 309:629-636 (1995)). Specifically, infectious Bacmid containing rhodopsin tagged mT2R5 (DBA/2-allele) was produced using the Bac-to-Bac system (Lifetechnologies, MD). Insect larval cells were infected for 60 h with recombinant Bacmid and membranes were prepared as described previously (Ryba and Tirindelli, J Biol Chem, 270:6757-6767 (1995)). Peripheral proteins were removed by treatment with 8 M urea and membranes were resuspended in 10 mM HEPES pH7.5, 1 mM EDTA and 1 mM DTT. The expression of rho-mT2R5 was assessed by Western blot using mAb B6-30 and quantitated by comparison with known amounts of rhodopsin. Approximately 300 pmol of rho-mT2R5 could be obtained from 2×10^8 infected cells. […] Receptor-catalyzed exchange of GDP for GTPγS on gustducin and other G-protein α-subunits was measured in the presence of 10 nM rho-mT2R5, 100 μM GDP, and 20 μM Gβ1γ8. […]

With `C[C@@H]1C[C@@H]([C@H](O)CC2CC(=O)NC(=O)C2)C(=O)[C@@H](C)C1` [cycloheximide] the “coupling of mT2R5 to other G-proteins” value was “no coupling”.
